≈ marks a conversion by molar mass, not a printed value.
What was measured:
[1] = system: Caco-2 cell monolayers
Protocol: The transcellular transport of conjugate was evaluated using Caco-2 cell monolayers. Caco-2 cells were maintained in plastic culture flasks. These stock cells were subcultivated before reaching confluence. The medium consisted of Dulbecco's Modified Eagle's Medium supplemented with 10% fetal bovine serum, 1% nonessential amino acid, 2 mM L-glutamine and 100 IU/mL penicillin-10 ug/mL streptomycin. The monolayer cultures were grown in an atmosphere of 5% CO2-95% O2 at 37° C. The cells were given fresh growth medium every 2 days. When the Caco-2 cells had reached confluence, they were harvested with 0.25 mM trypsin and 0.2% EDTA (0.5-1 min at 37° C.), resuspended, and seeded into a new flask, Caco-2 cells were used between passages 45 and 60. For the transport study, Caco-2 cells were seeded at a cell density of 8×10^4 cells/cm^2 on 6-well (3-mm pores, 4.71-cm^2 growth area) Transwell™. The cell monolayers were fed a fresh growth medium every 2 days and were used at 16 to 21 days for the transport experiments. TEER was used to monitor the integrity of the monolayers. Monolayers with TEER above 350/cm^2 (after subtracting the back group value of the transwell) were used in the study.

[2] = system: L-02; experiment: MTT cytotoxicity assay, L-02 cells; type: cell-based; conditions: concentration of MMC or conjugate up to 8 ugMMC/ml
Protocol: (§1) Conjugate cytotoxicity was assessed using an MTT assay. Cells (SMMC-7721, L-02, etc.) were seeded at a density of 1×10^4 cells/well […] to the assay. At the start of the experiment the culture medium was removed and the conjugate (0-2 mg/lnl in complete medium) was added (100 ul). After 4 h, MTT (20 ul; 5 mg/ml in PBS) was added and the plates re-incubated for a further 5 h. the formazan crystals were dissolved in DMSO and the absorbance read at 550 nm using a microtitre plate reader. The results were expressed as viability(%) relative to a control containing no conjugate.

[3] = system: SMMC-7721; experiment: MTT cytotoxicity assay, SMMC-7721 cells; type: cell-based
Protocol: as §1

Compound: Fe-transferrin-MMC
- transcellular transport by caco-2 cells (transport fraction) [1]: 20 % of total drug
- viability of L-02 [2]: unchanged
- IC50 to SMMC-7721 ([3]; viability relative to control containing no conjugate): 0.5 ug MMC/ml

Compound: CO[C@@]12[C@H](COC(N)=O)C3=C(C(=O)C(C)=C(N)C3=O)N1C[C@@H]1N[C@@H]12 [MMC, mitomycinC, reference compound]
- viability of L-02 [2]: unchanged
- IC50 ([3]; Homo sapiens, SMMC-7721, viability relative to control containing no conjugate): 1.6 µg/mL (≈ 4.79 µM)

Reference: patent US20080306248A1, “Conjugate of Biomacromolecule with Bioreductive and Preparative Method Thereof” (priority 2005, published 2008)
